This test relates to Panc354 and MetPO1 cells. Kind of test: Flow cytometry for CD133 after combination treatment. It is filed as cell-based, human. The note with it: representative cytometry plot, JM#21 10μM, Gem 1μM. For orientation: A flow cytometer gives signals particle by particle.

For `Nc1ccn([C@@H]2O[C@H](CO)[C@@H](O)C2(F)F)c(=O)n1` [gemcitabine], the “CD133 - PE positive cells” value is on record as 14.5%.

The record behind these values is doi:10.1101/2025.03.03.641126v1 (bioRxiv, 2025).
